Measurements as given in US20040082021A1, “Method for assaying compounds or agents for ability to decrease the activity of microsomal prostaglandin E synthase or hematopoietic prostaglandin D synthase” (Aventis Pharmaceuticals Inc., priority 2002, published 2004).

Target: T1, human hPGDS (Homo sapiens, UniProt O60760)
T1 construct: made in house; host or cells: E. coli FL21 (DE3) as printed, pT7-7 vector
Assay: Fluorescence polarization assay of hematopoietic prostaglandin D synthase (hPGDS)
Assay type: biochemical
Conditions: conversion of PGH2 to PGD2, FIG. 8 histogram
Protocol: A fluorescence polarization (FP) assay to measure hPGDS activity has also been developed (FIGS. 3 and 4). The assay is configured based on the fluorescence polarization principle. hPGDS was mixed with PGH2, glutathione, and the compound or agent being evaluated. After a short period of time (about 30 seconds), a stop solution containing FeCl2 (20 mM) was added to quench any remaining PGH2, which would undergo spontaneous conversion to a mixture of PGD2 and PGE2, and thus interfere with the quantification of the enzymatic conversion of PGH2 to PGD2 (FIG. 3). A detection solution containing a fluorescence labeled (Texas Red) tracer (PGD2) and anti-PGD2 antibody was then added in order to generate the specific signal that is inversely proportional to the production of PGD2 (FIG. 4). The PGD2 generated from the enzymatic reaction competed specifically for the antibody and released the fluorescence labeled tracer. For reasons discussed above, a decrease or inhibition of PGD2 synthase activity results in increased fluorescence polarization (FP) value. […]
A control mixture was prepared that was identical to the mixture containing the enzyme, wherein the control mixture was treated in a manner identical the mixture containing the enzyme, i.e., same incubation durations, etc. […] The fluorescence polarization measurement was made while the measuring instrument is in FP mode. […]

T1 sequence (O60760 whole entry): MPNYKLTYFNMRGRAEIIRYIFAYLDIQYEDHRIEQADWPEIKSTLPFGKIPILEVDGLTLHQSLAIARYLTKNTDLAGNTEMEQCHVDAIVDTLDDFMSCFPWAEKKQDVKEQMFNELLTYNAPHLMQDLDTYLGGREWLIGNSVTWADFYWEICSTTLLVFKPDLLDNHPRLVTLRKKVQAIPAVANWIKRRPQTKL

**Q.** How did the “decrease in activity of hPGDS detected by FP method” value turn out when `c1ccc(C(OC2CCN(CCCc3nn[nH]n3)CC2)c2ccccc2)cc1` [HQL 79] was run?
**A.** decreases the activity of hPGDS
